Experiments:
Test in all cases: relative viability (nuclei count vs DMSO), 5 days (fraction); higher = more cells survive
[1] = compound: CC1=CSC(=NC2CCCCC2)N1/N=C/C3=C(C(=C(C=C3)O)O)O [MIM1]
Summary of the method: (§1)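 Viability was read as treated-well nuclei divided by vehicle-well nuclei, using the median across plates. Lung cancer cell lines in 1536-well plates were kept overnight at 37 °C, pinned with five √10-spaced library-drug doses, and after 5 days were Hoechst-stained, imaged at 4× and counted in MetaXpress. Plates passed only with control CV below 25% and at least one doubling.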

[2] = compound: CCNC(=O)c1noc(-c2cc(C(C)C)c(O)cc2O)c1-c1ccc(CN2CCOCC2)cc1 [Luminespib]
Summary of the method: as §1

[3] = compound: CN1CCN(CCOc2cc(OC3CCOCC3)c3c(Nc4c(Cl)ccc5c4OCO5)ncnc3c2)CC1 [Saracatinib]
Summary of the method: as §1

[4] = compound: Cc1cn(-c2cc(NC(=O)c3ccc(C)c(Nc4nccc(-c5cccnc5)n4)c3)cc(C(F)(F)F)c2)cn1 [Nilotinib]
Summary of the method: as §1

[5] = compound: Nc1cccc2c1CN(C1CCC(=O)NC1=O)C2=O [Lenalidomide]
Summary of the method: as §1

Cell Line | relative viability ([1]; 0.2 µM) | relative viability ([1]; 0.6325 µM) | relative viability ([1]; 2 µM) | relative viability ([1]; 6.325 µM) | relative viability ([1]; 20 µM) | relative viability ([2]; 0.002 µM) | relative viability ([2]; 0.006325 µM) | relative viability ([2]; 0.01 µM, anchor plate) | relative viability ([2]; 0.02 µM) | relative viability ([2]; 0.06325 µM) | relative viability ([2]; 0.2 µM) | relative viability ([3]; 0.02 µM) | relative viability ([3]; 0.2 µM) | relative viability ([3]; 0.6325 µM) | relative viability ([3]; 2 µM) | relative viability ([4]; 0.001 µM) | relative viability ([4]; 0.003162 µM) | relative viability ([4]; 0.03162 µM) | relative viability ([4]; 0.1 µM) | relative viability ([5]; 0.253 µM) | relative viability ([5]; 0.8 µM) | relative viability ([5]; 2.53 µM) | relative viability ([5]; 8 µM) | relative viability ([4]; 0.01 µM)
H3255 | 0.952 | 0.882 | 0.891 | 0.724 | 0.35 | 0.969 | 0.808 | 0.933 | 0.702 | 0.834 | 0.346 | 1.04 | 0.851 | 0.989 | 0.348 | 0.937 | 0.971 | 0.877 | 0.907 | 0.983 | 0.969 | 1.05 | 0.882 | –
HARA | 0.903 | 0.961 | 0.998 | 0.365 | 0.225 | 0.862 | 0.784 | 0.834 | 0.878 | 0.783 | 0.131 | 0.979 | 0.852 | 1.14 | 0.561 | 0.983 | 0.981 | 0.647 | 0.569 | 1.11 | – | 1.13 | 1.05 | 0.948
HCC-15 | 0.997 | 0.717 | 1.08 | 0.425 | 0.105 | 0.967 | 0.923 | 0.388 | 0.943 | 0.33 | 0.128 | 0.982 | 0.888 | 1.07 | 0.99 | 0.909 | 1.18 | 0.761 | 0.496 | 1.02 | 0.877 | 1.21 | 0.854 | 1.15
HCC-44 | 1.01 | 0.969 | 0.661 | 0.604 | 0.203 | 0.969 | 1.01 | 1.09 | 0.997 | 0.55 | 0.225 | 1.06 | 0.878 | 1.04 | 1.03 | 1 | 0.921 | 0.949 | 0.722 | 1.01 | 0.68 | 0.992 | 0.78 | 0.93
HCC-78 | 1.07 | 0.549 | 0.888 | 0.677 | 0.424 | 0.869 | 0.72 | – | – | 0.999 | 0.4 | 0.956 | 0.815 | 1.08 | 0.834 | 1.06 | 0.937 | 0.84 | 0.746 | 0.885 | 0.861 | 0.957 | 0.618 | 1.07
HCC-366 | 0.991 | – | 0.973 | 0.216 | 0.0492 | 0.988 | 0.987 | – | 0.998 | 0.0511 | 0.053 | 1.07 | 0.731 | 0.952 | 0.77 | 0.982 | 1.12 | 0.971 | 0.527 | 1.02 | 0.989 | 1.07 | 0.934 | 1.24
HCC-827 | 1.01 | 0.994 | 1.03 | 0.367 | 0.39 | 1.06 | 1 | 0.647 | 0.984 | 1.03 | 0.235 | 1.02 | 0.813 | 0.366 | 0.188 | 1.02 | 1.09 | 1.03 | 1.06 | 1.04 | 0.99 | 1.05 | 1.1 | 1.07
HOP-62 | 1.02 | 0.942 | 0.782 | 0.74 | 0.204 | 1.05 | 0.969 | 0.912 | 1.01 | 0.659 | 0.249 | 1.02 | 0.968 | 1.19 | 1.14 | 0.953 | 0.958 | 0.698 | 0.462 | 0.943 | 0.963 | 1.05 | 0.93 | 0.948
IA-LM | 0.976 | 0.935 | 0.896 | 0.345 | 0.157 | 1.06 | 0.884 | – | 0.678 | 0.0695 | 0.0432 | 0.983 | 0.848 | 1.46 | 1 | 0.835 | 0.793 | 0.789 | 0.909 | 0.985 | 0.859 | 1.05 | 0.942 | 1.07
LC-2-ad | 0.991 | 0.699 | 0.944 | 0.428 | 0.231 | 0.95 | 0.936 | 1.03 | 0.915 | 0.561 | 0.207 | 1.05 | 0.978 | 1.15 | 0.944 | 0.95 | 1.15 | 0.912 | 0.479 | 1.04 | 0.862 | 1.08 | 1.02 | 1.15
LCLC-97TM1 | 1.02 | 0.767 | 0.703 | 0.456 | 0.144 | 0.878 | 0.814 | 0.77 | 0.466 | 0.528 | 0.0858 | 0.986 | 0.712 | 1.19 | 0.974 | – | 0.984 | 0.834 | 0.368 | 0.943 | 0.932 | 1.05 | 0.616 | 1.06
LCLC-103H | 1.02 | 0.976 | 0.973 | 0.742 | 0.53 | 0.982 | 1.01 | 0.954 | 0.941 | 1.02 | 0.83 | 0.944 | 0.884 | 1.02 | 0.963 | 1.01 | 1.08 | 0.975 | 0.804 | 0.97 | 1 | 0.988 | 0.783 | 1.12
LK-2 | 1.01 | 1.04 | 0.858 | 0.957 | 0.262 | 1.03 | 1.02 | 0.204 | 0.556 | 0.258 | 0.154 | 0.925 | 0.823 | 0.788 | 0.484 | 0.89 | 0.903 | 0.729 | 0.875 | 0.985 | 0.956 | 1.14 | 0.906 | 1.08
LOU-NH91 | 0.863 | 0.903 | 0.809 | 0.758 | 0.394 | 0.995 | 0.922 | 0.364 | 0.717 | 0.334 | 0.376 | 0.945 | 0.741 | 0.834 | 0.66 | 0.961 | 0.944 | 0.981 | 0.967 | 1 | 0.873 | 0.95 | 0.905 | 0.973

From the supplement of paper PMC10307832
